PubChem BioAssay (NCI)
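In this assay, cells in 96-well plates receive the compound at five concentrations for 48 hours. Endpoints are linearly interpolated between the surrounding concentrations. TGI: total growth inhibition.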

How the values were obtained:
Test in all cases: NCI anticancer screen, dose series, 48 h
KM20L2 colon = test system: KM20L2 colon
SNB-78 CNS = test system: SNB-78 CNS
M19-MEL melanoma = test system: M19-MEL melanoma
HOP-18 NSCLC = test system: HOP-18 NSCLC
XF 498 CNS = test system: XF 498 CNS
RXF-631 renal = test system: RXF-631 renal

Compound | TGI (KM20L2 colon) [µM] | TGI (SNB-78 CNS) [µM] | TGI (M19-MEL melanoma) [µM] | TGI (HOP-18 NSCLC) [µM] | TGI (XF 498 CNS) [µM] | TGI (RXF-631 renal) [µM]
O=c1ccc2ccccc2c2ccccc12 | 3.85 | 17.7 | 10.7 | 14.9 |  | 
CC(C)N(C(=O)C12C3C4C1C1C2C3C41C(=O)N(C(C)C)C(C)C)C(C)C (centres undefined) | > 50 | > 50 | > 50 |  | > 50 | > 50
CN(C)CC(/C(Cc1ccccc1)=N\NC(=S)NN)c1ccccc1 (centres undefined) | > 100 | > 100 | > 100 |  | > 100 | 
COc1cc(-c2cc(=O)c3ccccc3[nH]2)cc(OC)c1OC | > 75 | > 75 | > 75 |  |  | 
CN(C)C(F)=PC(F)(F)F (centres undefined) | > 100 | > 100 | > 100 | > 100 | > 100 | 
CSC(=N)N1N=C2/C(=C/c3ccccc3)CCC[C@H]2[C@H]1c1ccccc1 | 5.97 | 34.6 |  | 14.3 | 23.5 | 
Oc1cccnc1/C=N/OCc1ccccc1 | > 100 | > 100 | > 100 |  | > 100 | 
COC(=O)CCC(NC(=S)N/N=C(\C)c1cnccn1)C(=O)OC (centres undefined) | > 100 | > 100 | > 100 | > 100 | > 100 | > 100
O=C(O)C12CC3CC(CC(F)(C3)C1)C2 | > 100 | > 100 | > 100 |  | > 100 | 
COCCOCOC(C)(C)[C@H](CCO)O[Si](c1ccccc1)(c1ccccc1)C(C)(C)C | 24.4 | 35.1 | 26.9 | 31.9 | 13.5 | 21.7
C/C(N=NS(=O)(=O)c1ccc(C)cc1)=C1\C=CC=CN1O | > 100 | > 100 | > 100 | > 100 | > 100 | > 100
O=C(Nc1nc2ncn(CCO)c2c(=O)[nH]1)c1ccccc1 | > 100 | > 100 | > 100 | > 100 |  | 
COC(=O)c1ccc(C=C(C#N)C#N)cc1 | > 100 |  | 75.4 | > 100 |  | > 100
O=c1ccn(/C=C/C(O)C(O)CO)c(=O)[nH]1 (centres undefined) | > 100 | > 100 | > 100 | > 100 | > 100 | > 100
CS(=O)(=O)C1(Br)S(=O)(=O)OCCOS1(=O)=O | > 100 | > 100 | > 100 |  | > 100 | 
CSc1ccc2c(cc1=O)C(NC(=O)c1ccc(C#N)cc1)CCc1cc(O)c(O)c(O)c1-2 (centres undefined) | 45.5 | > 100 | 39 |  | 89.2 | > 100
Nc1nc2ncn(CC(O)CO)c2c(=O)[nH]1 (centres undefined) | > 100 | > 100 | > 100 | > 100 |  | > 100
